The record followed here is patent US9758395B2, “Lysine-based polymer coagulants for use in clarification of process waters” (priority 2011, dated 2017).

The nature of this series: Solubility of lysine HCl in water with temperature. Type of series: physicochemical. Conditions: room temperature (20-25° C.), monohydrochloride. On the procedure: The solubilities of lysine were essentially the same with and without the maleic acid added to the water. For example, samples of lysine HCl were added to water in sealed, glass bottles, shaken, and placed in the forced-air oven at various temperatures. These were manually shaken periodically over the next few hours, then left to dissolve overnight. […] At 70° C., the lysine completely dissolved to 60%; at 80° C. to 62%; at 90° C. to 64%; at 100° C. to 66% lysine by weight in water. […] Representative samples of these materials were dried and polymerized at 220° C., 5 to 7 hours, under nitrogen.

On to `Cl.NCCCC[C@H](N)C(=O)O` [lysine HCl, L-lysine monohydrochloride], for which the solubility in water entry is “about 50 % by weight”. The molecule also displayed a solubility in water (listed as lysine) of 50 % by weight.
